Values quoted from earlier work in EP1001773B1, “ORAL SOLID PHARMACEUTICAL COMPOSITIONS CONTAINING NICORANDIL FOR A MODULATED RELEASE AND THE PROCESS FOR THEIR PREPARATION” (Biomedica Foscama Industria Chimico-Farmaceutica S.p.A., priority 1997, dated 1999).

Settings: orally administered, conventional tablets; Am.J.Cardiol. 1989, 63, 25J-33J

Question: For `O=C(NCCO[N+](=O)[O-])c1cccnc1` [Nicorandil, N-(2-hydroxyethyl) nicotinamide nitric ester], which Tmax. is on record?
Answer: Its Tmax. is 30 min.
